Test results as given in publication PMC12560751 (RSC Advances, 2025).

Key:
NIH/3T3 cell lines = test: Cytotoxicity, 24-hour MTT assay; format: cell-based; conditions: for IC50: Mus musculus, NIH3T3, 24 h, read-out: IC50 against NIH/3T3
recombinant hMAO B = target: T1, recombinant hMAO B (Homo sapiens, UniProt P27338); test: MAO B inhibition, fluorometric method; format: biochemical
T1 sequence (P27338 1-520): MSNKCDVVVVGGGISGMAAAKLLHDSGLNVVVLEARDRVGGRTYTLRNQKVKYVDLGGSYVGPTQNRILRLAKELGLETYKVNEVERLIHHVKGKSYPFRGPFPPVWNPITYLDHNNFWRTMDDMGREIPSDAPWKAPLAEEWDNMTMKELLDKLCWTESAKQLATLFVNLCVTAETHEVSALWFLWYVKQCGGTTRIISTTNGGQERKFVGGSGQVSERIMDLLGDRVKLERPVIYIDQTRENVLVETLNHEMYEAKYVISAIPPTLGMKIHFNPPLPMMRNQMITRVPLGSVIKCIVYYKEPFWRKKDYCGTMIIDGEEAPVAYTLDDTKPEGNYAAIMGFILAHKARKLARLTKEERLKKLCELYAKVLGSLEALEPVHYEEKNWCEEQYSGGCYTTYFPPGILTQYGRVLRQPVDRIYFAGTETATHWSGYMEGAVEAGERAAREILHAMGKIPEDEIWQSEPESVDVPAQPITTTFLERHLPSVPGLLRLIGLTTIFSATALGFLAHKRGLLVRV

BChE = BChE (Homo sapiens, UniProt P06276); test: Anticholinesterase activity, modified colorimetric Ellman method; format: biochemical
AChE [1] = target: T2, AChE (Homo sapiens, UniProt P22303); test: as above; format: biochemical
hMAO A = target: T3, hMAO A (Homo sapiens, UniProt P21397); test: MAO A inhibition, fluorometric method; format: biochemical
T3 sequence (P21397 1-527): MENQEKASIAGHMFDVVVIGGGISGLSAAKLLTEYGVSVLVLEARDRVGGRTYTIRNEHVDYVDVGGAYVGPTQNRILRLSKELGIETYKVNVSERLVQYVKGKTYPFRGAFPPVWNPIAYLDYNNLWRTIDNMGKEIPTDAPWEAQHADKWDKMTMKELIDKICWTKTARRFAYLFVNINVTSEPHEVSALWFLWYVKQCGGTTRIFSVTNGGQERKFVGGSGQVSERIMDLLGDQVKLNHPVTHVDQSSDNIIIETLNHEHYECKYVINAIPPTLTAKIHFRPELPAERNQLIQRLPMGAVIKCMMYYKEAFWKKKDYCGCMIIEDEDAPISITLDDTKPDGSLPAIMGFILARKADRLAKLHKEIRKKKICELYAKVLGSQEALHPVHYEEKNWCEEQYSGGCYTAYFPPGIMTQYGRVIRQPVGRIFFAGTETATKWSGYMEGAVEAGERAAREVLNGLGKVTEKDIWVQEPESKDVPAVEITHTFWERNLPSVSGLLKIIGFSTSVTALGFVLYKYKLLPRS

AChE [2] = target: T2, AChE; test: Kinetic studies of AChE enzyme inhibition; format: biochemical; conditions: Lineweaver-Burk plot

Chain of BChE (P06276 29-602, species assumed): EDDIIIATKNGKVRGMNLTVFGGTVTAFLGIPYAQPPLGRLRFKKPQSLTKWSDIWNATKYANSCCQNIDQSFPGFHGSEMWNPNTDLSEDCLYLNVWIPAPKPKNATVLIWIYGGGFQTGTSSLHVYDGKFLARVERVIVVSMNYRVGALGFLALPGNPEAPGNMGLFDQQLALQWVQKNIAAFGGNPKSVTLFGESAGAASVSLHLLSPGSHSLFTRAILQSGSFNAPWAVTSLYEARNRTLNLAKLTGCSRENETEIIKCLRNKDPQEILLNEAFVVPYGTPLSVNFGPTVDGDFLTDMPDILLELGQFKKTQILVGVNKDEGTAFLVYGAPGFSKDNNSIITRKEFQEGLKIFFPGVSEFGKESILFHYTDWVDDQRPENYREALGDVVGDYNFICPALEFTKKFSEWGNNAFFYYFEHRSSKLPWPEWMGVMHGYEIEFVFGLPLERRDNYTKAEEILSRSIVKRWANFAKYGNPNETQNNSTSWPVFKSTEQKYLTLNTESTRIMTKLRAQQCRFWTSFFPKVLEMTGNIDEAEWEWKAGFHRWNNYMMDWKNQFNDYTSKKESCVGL
T2 sequence (P22303 32-614): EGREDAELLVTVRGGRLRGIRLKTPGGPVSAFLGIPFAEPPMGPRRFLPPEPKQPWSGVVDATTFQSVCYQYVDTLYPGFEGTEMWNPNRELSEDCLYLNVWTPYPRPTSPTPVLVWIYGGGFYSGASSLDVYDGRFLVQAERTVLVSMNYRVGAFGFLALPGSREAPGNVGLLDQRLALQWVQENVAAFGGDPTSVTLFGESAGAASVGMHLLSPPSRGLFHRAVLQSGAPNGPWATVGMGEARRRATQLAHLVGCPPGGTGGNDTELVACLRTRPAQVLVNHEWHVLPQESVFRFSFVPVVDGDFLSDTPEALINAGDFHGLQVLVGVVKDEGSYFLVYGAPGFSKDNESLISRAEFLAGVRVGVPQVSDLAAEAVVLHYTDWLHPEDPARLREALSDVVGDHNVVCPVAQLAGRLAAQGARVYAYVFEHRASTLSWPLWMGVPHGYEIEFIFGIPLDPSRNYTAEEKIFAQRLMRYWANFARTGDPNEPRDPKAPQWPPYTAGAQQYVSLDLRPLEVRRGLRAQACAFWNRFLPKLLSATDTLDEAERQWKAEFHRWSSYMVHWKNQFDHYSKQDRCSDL

Row | Structure (SMILES) | IC50 (NIH/3T3 cell lines) [µM] | IC50 (recombinant hMAO B; MAO B IC50, tables) [µM] | IC50 (recombinant hMAO B; MAO B IC50, text) [µM] | inhibition at 100 µM (recombinant hMAO B; read-out: MAO B % inhibition) [%] | inhibition at 1000 µM (recombinant hMAO B; read-out: MAO B % inhibition) [%] | IC50 (BChE) [µM] | inhibition at 100 µM (BChE; read-out: BChE % inhibition) [%] | inhibition at 1000 µM (BChE; read-out: BChE % inhibition) [%] | IC50 (AChE [1]) [µM] | inhibition at 100 µM (AChE [1]; read-out: AChE % inhibition) [%] | inhibition at 1000 µM (AChE [1]; read-out: AChE % inhibition) [%] | Selectivity and indexes (AChE [1]; selective for AChE (over BChE)) | IC50 (hMAO A) [µM] | inhibition at 100 µM (hMAO A; read-out: MAO A % inhibition) [%] | inhibition at 1000 µM (hMAO A; read-out: MAO A % inhibition) [%] | type of inhibition (AChE [2]) | cytotoxicity (in words) (NIH/3T3 cell lines; NIH/3T3, MTT)
1 | COc1cccc2c1C(=O)c1c(O)c3c(c(O)c1C2=O)C[C@@](O)(C(=O)CO)C[C@@H]3O[C@H]1C[C@H](N)[C@H](O)[C@H](C)O1 [Doxorubicin, reference compound] | > 1000 | – | – | – | – | – | – | – | – | – | – | – | – | – | – | – | –
2 | COc1ccc(C(=O)C=Cc2ccc(NC(=O)CN3CCN(C(C)=O)CC3)cc2)cc1OC [Compound 4g, 2-(4-Acetylpiperazin-1-yl)-N-(4-(3-(3,4-dimethoxyphenyl)-3-oxoprop-1-en-1-yl)phenyl)acetamide] | 32.2 | 0.114 ± 0.003 | < 1 | 89.2 ± 2.17 | 92.3 ± 2.16 | > 1000 | 29.9 ± 0.92 | 36.4 ± 0.954 | 0.027 ± 0.001 | 96.4 ± 2.5 | 98 ± 2.56 | AChE/>1000 | > 100 | 39.4 ± 1.11 | 69 ± 2.52 | reversible and mixed-type inhibitor | not cytotoxic
